In patent US12473277B2, “Solid forms of a modulator of hemoglobin” (GLOBAL BLOOD THERAPEUTICS, INC., priority 2021, dated 2025):
Counter-ions that a name gives are not always drawn.

Columns and labels:
[1] = Dynamic vapor sorption/desorption (DVS) isotherm; format: physicochemical; details: for hygroscopicity indicated by DVS isotherm: 5% to 95% RH, 10% RH increments, nitrogen purge; for weight gain and loss through the sorption/desorption cycle / weight gain through the sorption cycle / weight loss upon desorption: DVS; for weight gain and loss through the sorption/desorption cycle / weight gain through the sorption cycle: 5 to 95% RH; for material recovered from the DVS experiment, by XRPD: after DVS sorption/desorption cycle; for weight loss upon desorption: 95 to 5% RH
Method: Automated vapor sorption (VS) data were collected on a Surface Measurement System DVS Intrinsic instrument or a VTI SGA-100 instrument. Samples were not dried prior to analysis. Sorption and desorption data were collected over a range from 5% to 95% relative humidity (RH) at 10% RH increments under a nitrogen purge. The equilibrium criterion used for analysis was less than 0.0100% weight change in 5 minutes with a maximum equilibration time of 3 hours. Data were not corrected for the initial moisture content of the samples.

[2] = Physical stability of solid forms under humidity, temperature or vacuum stress (XRPD/observation); format: physicochemical
Method: XRPD figures were generated using SSCI Pattern Match 3.0.4, unvalidated software. XRPD patterns were collected with a PANalytical X'Pert PRO MPD or a PANalytical Empyrean diffractometer using an incident beam of Cu radiation produced using an Optix long, fine-focus source. An elliptically graded multilayer mirror was used to focus Cu Kα X-rays through the specimen and onto the detector. Prior to the analysis, a silicon specimen (NIST SRM 640e or NIST SRM 6400 was analyzed to verify the observed position of the Si 111 peak is consistent with the NIST-certified position. A specimen of the sample was sandwiched between 3-μm-thick films and analyzed in transmission geometry. A beam-stop, short antiscatter extension, and antiscatter knife edge were used to minimize the background generated by air. Soller slits for the incident and diffracted beams were used to minimize broadening and asymmetry from axial divergence. Diffraction patterns were collected using a scanning position-sensitive detector (X'Celerator) located 240 mm from the specimen and Data Collector software v. 2.2b or v. 5.5.

physchem = details: water
[3] = Binary interconversion slurry experiments between Compound I Form I and Compound I Material II; format: physicochemical; details: room temperature slurries
Excerpt: Binary interconversion slurry experiments between Compound I Form I and Compound I Material II in different solvent systems at room temperature are summarized in Table 2. Saturated solutions were generated and then added to mixtures composed of approximately equivalent quantities of the two polymorphs. The samples were slurried for several days and the solids harvested and analyzed by XRPD.

O=Cc1c(O)cccc1OC[C@@H]1COCCN1C(=O)c1cccnc1CCO [Compound I Material II, (S)-2-hydroxy-6-((4-(2-(2-hydroxyethyl)nicotinoyl)morpholin-3-yl)methoxy)benzaldehyde]
hygroscopicity indicated by DVS isotherm [1]: significant hygroscopicity above 85% RH
weight gain and loss through the sorption/desorption cycle [1]: approximately 3.4%
material recovered from the DVS experiment, by XRPD [1]: identified as Compound I Material II

O=Cc1c(O)cccc1OC[C@@H]1COCCN1C(=O)c1cccnc1CCO.O=S(=O)(O)O [Compound I Sulfate Form A, (S)-2-hydroxy-6-((4-(2-(2-hydroxyethyl)nicotinoyl)morpholin-3-yl)methoxy)benzaldehyde sulfate]
physical stability under vacuum (XRPD) ([2]; 43° C. under vacuum for 2 days): physically stable
physical stability under high humidity ([2]; 90% RH, ambient temperature, within 1 day): deliquesces
solubility (physchem): > 87 mg/mL

(S)-2-hydroxy-6-((4-(2-(2-hydroxyethyl)nicotinoyl)morpholin-3-yl)methoxy)benzaldehyde edisylate [Compound I Edisylate Material B]
physical stability under vacuum (XRPD) ([2]; 44° C. under vacuum): additional unidentified peaks

O=Cc1c(O)cccc1OC[C@@H]1COCCN1C(=O)c1cccnc1CCO [amorphous Compound I, (S)-2-hydroxy-6-((4-(2-(2-hydroxyethyl)nicotinoyl)morpholin-3-yl)methoxy)benzaldehyde]
hygroscopicity indicated by DVS isotherm [1]: significant hygroscopicity
weight gain through the sorption cycle [1]: approximately 10%
weight loss upon desorption [1]: 7%
material recovered from the DVS experiment, by XRPD [1]: remained amorphous

CCS(=O)(=O)O.O=Cc1c(O)cccc1OC[C@@H]1COCCN1C(=O)c1cccnc1CCO [Compound I Esylate Form A, (S)-2-hydroxy-6-((4-(2-(2-hydroxyethyl)nicotinoyl)morpholin-3-yl)methoxy)benzaldehyde esylate]
physical stability under vacuum (XRPD) ([2]; 44° C. under vacuum): not physically stable

(S)-2-hydroxy-6-((4-(2-(2-hydroxyethyl)nicotinoyl)morpholin-3-yl)methoxy)benzaldehyde edisylate [Compound I Edisylate Form A]
physical stability upon exposure to ambient conditions ([2]; ambient conditions, relative humidity approximately 57%): very hygroscopic and not stable under ambient conditions
physical stability on drying in vacuum oven (XRPD) ([2]; damp sample, 43° C. vacuum oven): physical instability

CCS(=O)(=O)O.O=Cc1c(O)cccc1OC[C@@H]1COCCN1C(=O)c1cccnc1CCO [Compound I Esylate Form B, (S)-2-hydroxy-6-((4-(2-(2-hydroxyethyl)nicotinoyl)morpholin-3-yl)methoxy)benzaldehyde esylate]
physical stability under high humidity ([2]; 90% relative humidity, ambient temperature): deliquesced

O=C(O)C(=O)O.O=Cc1c(O)cccc1OC[C@@H]1COCCN1C(=O)c1cccnc1CCO [Compound I Oxalate Form B, (S)-2-hydroxy-6-((4-(2-(2-hydroxyethyl)nicotinoyl)morpholin-3-yl)methoxy)benzaldehyde oxalate]
physical stability under high humidity (XRPD) ([2]; 90% RH, ambient temperature, 11 days): still predominately Compound I Oxalate Form B
solubility (physchem): > 134 mg/mL

O=Cc1c(O)cccc1OC[C@@H]1COCCN1C(=O)c1cccnc1CCO.O=S(=O)(O)c1cccc2c(S(=O)(=O)O)cccc12 [Compound I Napadisylate Form A, (S)-2-hydroxy-6-((4-(2-(2-hydroxyethyl)nicotinoyl)morpholin-3-yl)methoxy)benzaldehyde napadisylate]
physical stability under vacuum (XRPD) ([2]; 43° C. under vacuum, within 4 days): not physically stable

O=Cc1c(O)cccc1OC[C@@H]1COCCN1C(=O)c1cccnc1CCO [Compound I HCl Form A]
physical stability, XRPD pattern after stress ([2]; 40° C./75% RH for 27 days): no changes were observed in the XRPD pattern
hygroscopicity indicated by DVS isotherm [1]: significant hygroscopicity
weight gain through the sorption cycle [1]: 3%
weight loss upon desorption [1]: 3.3%
material recovered from the DVS experiment, by XRPD [1]: remained Compound I HCl Form A

O=Cc1c(O)cccc1OC[C@@H]1COCCN1C(=O)c1cccnc1CCO [Compound I Form I, (S)-2-hydroxy-6-((4-(2-(2-hydroxyethyl)nicotinoyl)morpholin-3-yl)methoxy)benzaldehyde]
relative thermodynamic stability from interconversion studies [3]: most thermodynamically stable form relative to Material II
hygroscopicity indicated by DVS isotherm [1]: low hygroscopicity
weight gain and loss through the sorption/desorption cycle [1]: 0.7%
material recovered from the DVS experiment, by XRPD [1]: identified as Compound I Form I
